In US20220401418A1, “TREATMENT OF MALARIA USING HISTONE DEACETYLASE (HDAC) INHIBITORS” (FOUNDATION FOR NEGLECTED DISEASE RESEARCH, priority 2019, published 2022):
Where two headings read alike, the source gives them in different places.

Assays:
[1] = test system: Hu HDAC (HeLa nuclear extract); test: HDAC activity screening, fluorescence assay with HeLa nuclear extract; assay type: biochemical, human; settings: HeLa nuclear extract as enzyme source
Description: HDAC inhibition screening was performed using a fluorescence-based assay with a fluorescent substrate (BocLys (Ac)-AMC Substrate). HeLa nuclear extract was used as the enzyme source.
The assay was performed in 96-well black microplates, and the total volume of the assay was set at 100 μl. […] The enzyme mixture was prepared by adding […] of the diluted enzyme (HeLa nuclear extract) to […] of HDAC buffer. From the enzyme mixture, 40 μl was taken and mixed with 10 μl of test compound (final concentration from 0.01 to 10 μM) or vehicle (control). The final mixture (50 μl) was added to each well which was then pre-incubated at 37° C. for 10 min. The HDAC reaction was started by adding 50 μl of HDAC substrate: Boc-Lys (Ac)-AMC (Anaspec, Inc Fremont, Calif., USA). […] The release of AMC was monitored by measuring the fluorescence at an excitation wavelength of 360 nm and an emission wavelength of 460 nm. Buffer and substrate alone served as blank.

Pf-HDAC1 = biological target: T1, Pf-HDAC1 (Plasmodium falciparum, UniProt Q7K6A1); test: PfHDAC1 fluorescent activity assay; assay type: biochemical
T1 construct: His-tag; FLAG-tag; purchased BPS Bioscience
T1 sequence (Q7K6A1 1-449): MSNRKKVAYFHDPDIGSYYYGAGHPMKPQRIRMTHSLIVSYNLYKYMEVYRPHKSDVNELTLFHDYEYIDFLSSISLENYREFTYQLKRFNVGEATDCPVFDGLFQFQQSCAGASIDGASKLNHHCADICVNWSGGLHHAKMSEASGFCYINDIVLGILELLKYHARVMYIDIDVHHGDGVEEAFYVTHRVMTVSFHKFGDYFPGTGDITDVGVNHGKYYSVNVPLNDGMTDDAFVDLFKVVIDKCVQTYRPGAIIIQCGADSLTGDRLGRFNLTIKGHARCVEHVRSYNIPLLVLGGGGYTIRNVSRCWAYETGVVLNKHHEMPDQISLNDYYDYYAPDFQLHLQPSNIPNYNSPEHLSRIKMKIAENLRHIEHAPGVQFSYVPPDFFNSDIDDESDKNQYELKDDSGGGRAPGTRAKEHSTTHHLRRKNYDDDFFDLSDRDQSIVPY
Description: The fluorescence developed was measured with excitation at 350-380 nm and emission at 440-460 nm.

[2] = test system: Plasmodium falciparum 3D7; test: Plasmodium falciparum asexual blood-stage (ABS) assay; assay type: cell-based
Description: Plasmodium falciparum 3[…]. falciparum asexual blood-stage (ABS) assay, for which the cells were resuscitated from the stabilate and maintained at 5% haematocrit. Red blood cells obtained from the hospital were used to maintain the culture at 1% parasitaemia while screening. Plasmodium falciparum: 3D7 cells were used as a target strain for the assay. Mefloquine (Sigma-Aldrich) was used as a standard inhibitor. At day 1, […] of 10 mM mefloquine was added to columns 12 and 24 of the sterile 384-well black, clear-bottom, cell culture assay plates followed by compound curves which were added using Echo. The P. falciparum 3D7 cells were counted and 20 ml of culture was prepared at 5% haematocrit, 0.3% parasitaemia (as one batch, i.e., 12 plates, prepare 260 ml, to allow for WellMate prime volume) for each plate. From this, 50 μl of culture was added to all wells on all plates using WellMate with small bore tubing on full (S-1) speed. […] The plates were read on Victor plate reader using '384sybrgreen' protocol (excitation 485 nm, emission 528 nm) after which the plate contents were aspirated into 5% Virkon, and disposed of after autoclaving. Percentage inhibition for each test compound was calculated using the following equation: % Inhibition=100-(TEST COMPOUND-BLANK)/(NO INHIBITION-BLANK)*100)

Plasma Protein = test: Plasma protein binding, human; assay type: in vitro ADME; settings: summary statement on Table 3, across species
Excerpt: (§1) Method Reference for Table 3: Chung T D Y et al. In Vitro and In Vivo Assessment of ADME and PK Properties during lead selection and lead optimisation-guidelines, benchmarks and rules of thumb. In: Assay Guidance Manual. 2015.

[3] = assay type: in vitro ADME; settings: mouse, microsomes, 2 h, 10 μM
Excerpt: as §1

[4] = Microsomal stability, RLM; assay type: in vitro ADME; settings: Test Conc. 10 μM
Excerpt: as §1

[5] = Microsomal stability, HLM; assay type: in vitro ADME
Excerpt: as §1

Plasma stability, mouse = assay type: in vitro ADME
Excerpt: as §1

Plasma stability, rat = assay type: in vitro ADME
Excerpt: as §1

Plasma stability, dog = assay type: in vitro ADME
Excerpt: as §1

Plasma stability, human = assay type: in vitro ADME
Excerpt: as §1

CYP 1A2 = biological target: T2, CYP 1A2 (Homo sapiens, UniProt P05177); test: Cyp inhibition CYP 1A2; assay type: in vitro ADME; settings: summary statement on Table 3, all CYP isoforms tested
T2 sequence (P05177 1-516): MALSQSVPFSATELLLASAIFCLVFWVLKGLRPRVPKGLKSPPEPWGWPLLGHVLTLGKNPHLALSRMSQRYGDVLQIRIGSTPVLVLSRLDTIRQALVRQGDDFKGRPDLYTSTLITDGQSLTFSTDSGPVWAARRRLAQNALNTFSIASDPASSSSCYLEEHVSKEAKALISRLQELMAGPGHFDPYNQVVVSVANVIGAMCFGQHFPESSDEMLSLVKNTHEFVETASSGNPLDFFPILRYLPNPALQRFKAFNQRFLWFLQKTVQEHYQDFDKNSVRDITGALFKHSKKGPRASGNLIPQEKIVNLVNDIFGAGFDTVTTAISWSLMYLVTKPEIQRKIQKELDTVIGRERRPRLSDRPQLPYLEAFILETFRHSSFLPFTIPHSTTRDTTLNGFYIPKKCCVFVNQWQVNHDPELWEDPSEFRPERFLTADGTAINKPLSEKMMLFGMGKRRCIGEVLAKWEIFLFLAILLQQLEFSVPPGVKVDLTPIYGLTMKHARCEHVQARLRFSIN
Excerpt: as §1

CYP 2D6 = CYP 2D6 (Homo sapiens, UniProt P10635); test: Cyp inhibition CYP 2D6; assay type: in vitro ADME
Excerpt: as §1

CYP 3A4 = CYP 3A4 (Homo sapiens, UniProt P08684); test: Cyp inhibition CYP 3A4; assay type: in vitro ADME
Excerpt: as §1

HepG2 = test: Cytotoxicity HepG2; assay type: cell-based
Excerpt: as §1

HERG = HERG (Homo sapiens, UniProt Q12809); test: HERG binding; settings: summary statement on Table 3
Excerpt: as §1

P. falciparum = test: In vivo efficacy in humanized SCID mouse model of P. falciparum malaria; settings: for reduction in parasitaemia: intra-peritoneal, humanized SCID mice
Excerpt: In vivo efficacy assessed in humanized SCID mouse model of P. falciparum malaria.

CYP 2D6, sequence (P10635 whole entry, species assumed): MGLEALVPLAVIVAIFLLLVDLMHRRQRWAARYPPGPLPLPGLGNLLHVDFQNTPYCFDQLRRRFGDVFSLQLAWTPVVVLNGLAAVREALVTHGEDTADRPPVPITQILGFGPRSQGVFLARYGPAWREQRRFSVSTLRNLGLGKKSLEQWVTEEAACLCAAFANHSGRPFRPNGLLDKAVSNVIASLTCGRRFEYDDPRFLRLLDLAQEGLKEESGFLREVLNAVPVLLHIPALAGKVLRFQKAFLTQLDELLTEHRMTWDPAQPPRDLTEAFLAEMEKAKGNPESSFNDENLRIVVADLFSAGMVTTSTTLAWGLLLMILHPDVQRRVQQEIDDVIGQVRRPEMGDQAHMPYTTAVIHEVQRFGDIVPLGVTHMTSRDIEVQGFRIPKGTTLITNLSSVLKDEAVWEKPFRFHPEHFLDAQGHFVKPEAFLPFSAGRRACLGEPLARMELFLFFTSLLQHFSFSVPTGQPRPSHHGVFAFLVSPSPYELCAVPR
HERG, sequence (Q12809 whole entry): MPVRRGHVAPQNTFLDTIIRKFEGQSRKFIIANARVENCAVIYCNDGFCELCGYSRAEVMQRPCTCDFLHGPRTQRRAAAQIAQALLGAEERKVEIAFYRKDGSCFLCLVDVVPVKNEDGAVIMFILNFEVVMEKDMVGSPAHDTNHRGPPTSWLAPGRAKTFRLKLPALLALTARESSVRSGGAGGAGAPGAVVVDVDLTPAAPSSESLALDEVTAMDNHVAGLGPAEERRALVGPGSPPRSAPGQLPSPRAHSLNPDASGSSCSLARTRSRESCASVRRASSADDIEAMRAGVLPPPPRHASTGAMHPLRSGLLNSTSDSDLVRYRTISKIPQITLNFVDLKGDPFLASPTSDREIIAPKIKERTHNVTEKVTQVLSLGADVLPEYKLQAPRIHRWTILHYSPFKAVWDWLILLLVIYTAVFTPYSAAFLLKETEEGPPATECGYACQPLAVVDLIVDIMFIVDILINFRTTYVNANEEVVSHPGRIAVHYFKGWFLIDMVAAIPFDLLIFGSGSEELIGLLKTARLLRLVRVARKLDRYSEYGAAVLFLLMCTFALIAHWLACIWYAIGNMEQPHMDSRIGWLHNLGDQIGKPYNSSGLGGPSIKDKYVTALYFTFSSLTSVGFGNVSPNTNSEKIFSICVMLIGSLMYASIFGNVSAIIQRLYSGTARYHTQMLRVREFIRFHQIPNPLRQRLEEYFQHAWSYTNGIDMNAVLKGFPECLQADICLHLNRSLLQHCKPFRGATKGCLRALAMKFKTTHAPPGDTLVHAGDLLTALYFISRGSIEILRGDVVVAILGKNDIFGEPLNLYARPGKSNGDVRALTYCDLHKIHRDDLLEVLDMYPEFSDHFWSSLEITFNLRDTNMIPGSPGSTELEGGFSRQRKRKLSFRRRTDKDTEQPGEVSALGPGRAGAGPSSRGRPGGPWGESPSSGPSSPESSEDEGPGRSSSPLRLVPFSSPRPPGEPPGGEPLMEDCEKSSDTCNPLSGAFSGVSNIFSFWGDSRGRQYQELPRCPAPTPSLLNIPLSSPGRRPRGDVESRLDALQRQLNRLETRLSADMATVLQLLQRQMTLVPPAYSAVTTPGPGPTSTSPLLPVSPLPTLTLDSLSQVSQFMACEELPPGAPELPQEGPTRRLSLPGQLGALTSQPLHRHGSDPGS
CYP 3A4, sequence (P08684 whole entry, species assumed): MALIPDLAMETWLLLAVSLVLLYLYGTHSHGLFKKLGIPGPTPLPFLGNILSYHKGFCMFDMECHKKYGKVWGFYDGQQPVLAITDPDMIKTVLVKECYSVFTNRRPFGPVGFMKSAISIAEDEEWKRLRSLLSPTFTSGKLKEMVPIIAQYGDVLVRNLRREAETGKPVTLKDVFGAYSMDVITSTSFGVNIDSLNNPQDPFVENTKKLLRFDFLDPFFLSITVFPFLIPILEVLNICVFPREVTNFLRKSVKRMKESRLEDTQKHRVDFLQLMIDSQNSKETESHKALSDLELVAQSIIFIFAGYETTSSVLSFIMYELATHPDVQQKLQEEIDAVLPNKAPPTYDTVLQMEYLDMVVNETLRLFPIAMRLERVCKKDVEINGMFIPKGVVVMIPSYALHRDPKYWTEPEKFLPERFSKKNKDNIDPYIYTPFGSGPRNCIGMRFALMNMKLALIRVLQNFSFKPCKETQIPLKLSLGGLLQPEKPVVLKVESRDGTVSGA

With `O=C(NO)c1ccc(Cn2cc(-c3ccc(CN4CCCC4)cc3)nn2)cc1` [FNDR-20123, N-hydroxy-4-((4-(4-(pyrrolidin-1-ylmethyl)phenyl)-1H-1,2,3-triazol-1-yl)methyl)benzamide] the IC50 [1] was about 3 nM, the IC50 ([1]; listed as 20123) was 3 nM and the IC50 (Pf-HDAC1) was 31 nM. For the same molecule, the IC50 ([2]; Plasmodium falciparum, P. falciparum 3D7, 72 h, read-out: Anti-Malarial Activity Asexual Blood Stage IC50) was 41 nM, the “anti-malarial activity in library screen” value ([2]; screen of proprietary compound library) was “potent anti-malarial activity” and the “plasma protein binding” value (Plasma Protein) was “low”. For the same molecule, the “Microsomal Stability (% remaining at 120 min)” value [3] was 76.15%, the “Microsomal Stability (% remaining at 120 min)” value [4] was 74.56% and the “Microsomal Stability (% remaining at 120 min)” value ([5]; HLM, Test Conc. 10 μM, 120 min) was 85.31%. For the same molecule, the “liver microsomal stability” value ([5]; summary statement on Table 3, all microsome species) was “good”, the “Plasma Stability (% remaining at 240 min)” value (Plasma stability, mouse) was 89.16% and the “Plasma Stability (% remaining at 240 min)” value (Plasma stability, rat) was 88.90%. The “Plasma Stability (% remaining at 240 min)” value (Plasma stability, dog) was 97.72%, the “Plasma Stability (% remaining at 240 min)” value (Plasma stability, human) was 98.94% and the “inhibition of the CYP isoforms tested” value (CYP 1A2) was “no inhibition”. For the same molecule, the IC50 (CYP 2D6) was 28000 nM, the IC50 (CYP 3A4) was 27000 nM and the “Cytotoxicity HepG2 (% @ 100 μM)” value (HepG2) was 12.6%. The “hERG liability” value (HERG) was “no hERG liability”, the reduction in parasitaemia (P. falciparum; 50 mg/kg) was 98% and the reduction in parasitaemia (P. falciparum; 100 mg/kg) was 99%. The reduction in parasitemia (P. falciparum; oral, 50 mg/kg body weight for 4 days, humanized SCID mouse) was 67%.
